Measured values taken from patent US9283166B2, “Modulation of melanogenesis by modification of tyrosinase by palmitoylation” (ELC Management LLC, priority 2012, dated 2016).

Tests used:
tyrosinase [1] = assay: Palmitoylated tyrosinase in NHEM by acyl-RAC and WB; format: cell-based, human; conditions: 24 hours, vs. DMSO
Description: (§1) Normal human epidermal melanocytes (NHEM) were incubated with 2-bromopalmitate (2-BP) for 24 hours, and total tyrosinase was determined by Western-blot (WB) using the mouse monoclonal anti-tyrosinase IgG antibody T311 (1:120 dilution). Total tyrosinase protein level was normalized by tubulin. Palmitoylated tyrosinase was evaluated by acyl-RAC and WB. The results shown in FIGS. 2A and 2B, are the average of three determinations SE. *p<0.05 vs. DMSO.

NHEM = assay: Melanin content in NHEM; format: cell-based, human; conditions: 48 hours, various concentrations, vs. DMSO
Description: (§2) NHEM were treated with indicated concentrations of 2-BP for 48 hours. Melanin content (closed bar) and cell number (open bar) were measured. Values are the average of three determinations±SE. *p<0.05 vs. DMSO. Macroscopic views of cell pellet were taken by digital camera (FIG. 3A). Reconstructed human skin models (Asian type) were incubated with 25 μM 2-BP for 17 days. Eumelanin (EM) and pheomelanin (PM) contents were determined and calculated by following formula. EM=PTCA*25, PM=4−AHP*9. Values are the average of three determinations±SE.*p<0.05 vs. DMSO. Macroscopic views of a human skin model after 17 days were taken by digital camera (FIG. 3B).

tyrosinase [2] = assay: Ubiquitination of tyrosinase in NHEM (IP and WB); format: cell-based, human; conditions: 5 μM, 24 hours
Description: NHEM were treated with 5 μM 2-BP for 24 hours. Equal protein amounts of cell lysate were used for IP by tyrosinase, and the ubiquitinated (UB) level of tyrosinase was analyzed by WB using anti-UB antibody.

tyrosinase [3] = assay: Glycosylation of tyrosinase (endo H digestion and WB) in NHEM; format: cell-based, human; conditions: 5 μM, 24 hours
Description: (§3) NHEM were cultured with 2-BP for 6 or 24 hours. Tyrosinase mRNA levels were analyzed by real time quantitative PCR. The results shown are the average of three determinations±SE.*p<0.05 vs. DMSO (FIG. 4A). NHEM were incubated with 5 μM 2-BP for 24 hours. Glycosidase digestion treatment by endo H and WB analysis on mature and immature form of tyrosinase were conducted by WB (FIG. 4B).

Tyrosinase mRNA = Tyrosinase mRNA by real time quantitative PCR in NHEM; format: cell-based, human; conditions: 6 or 24 hours
Description: as §3

[4] = system: Reconstructed human skin models (Asian type); assay: Melanin content in reconstructed human skin model; format: cell-based; conditions: 25 μM, 17 days, vs. DMSO
Description: as §2

tyrosinase [5] = assay: Total tyrosinase protein in NHEM by Western-blot; format: cell-based, human; conditions: 24 hours, various concentrations, vs. DMSO, normalized by tubulin
Description: as §1

tyrosinase [6] = assay: Degradation of tyrosinase in cycloheximide-treated NHEM (WB); format: cell-based, human; conditions: 4 hours
Description: NHEM were treated with 1 μg/ml cycloheximide, protein synthesis inhibitor, and with (▪) or without (⋄) 10 μM 2-BP for 4 hours. Tyrosinase levels were analyzed by WB using the mouse monoclonal anti-tyrosinase IgG antibody T311 (1:120 dilution). The band intensities of tyrosinase were normalized by the band intensities of Glyceraldehyde 3-phosphate dehydrogenase (GAPDH) as internal control for each condition. The results shown are the average of three determinations±SE.*p<0.05 vs. DMSO (FIGS. 5A and 5B).

NHEM (Asian) = assay: Melanin synthesis in NHEM with PP2 or KA, with or without 2-BP; format: cell-based, human; conditions: 120 hours
Description: NHEM (Asian) were incubated for 120 hours in the presence of PP2, with or without 2-BP. […] Mean±S.E. (N=3)*p<0.05, vs. control. Kojic Acid (KA) was used as a positive control.

[7] = target: T1, Palmitoyl:protein thioesterase (PPT1) (Homo sapiens, UniProt P50897); conditions: cited from earlier work; for PPT1 inhibitory activity: result in words
T1 sequence (P50897 28-306): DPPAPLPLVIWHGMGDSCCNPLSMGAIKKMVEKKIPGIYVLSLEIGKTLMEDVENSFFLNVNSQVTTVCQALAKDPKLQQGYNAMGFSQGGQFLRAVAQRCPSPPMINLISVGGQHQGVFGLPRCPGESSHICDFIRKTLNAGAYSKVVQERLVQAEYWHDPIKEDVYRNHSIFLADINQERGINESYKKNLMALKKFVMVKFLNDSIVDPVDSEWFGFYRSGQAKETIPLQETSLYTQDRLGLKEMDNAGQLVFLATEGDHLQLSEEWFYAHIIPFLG

CCCCCCCCCCCCCCC(Br)C(=O)O (stereo not drawn) [2-BP, 2-bromopalmitate]
amount of palmitoylated tyrosinase (tyrosinase [1]): decreased | melanin content per cell (NHEM): statistically significant increase | ubiquitination of tyrosinase (tyrosinase [2]): no effect | glycosylation of tyrosinase (tyrosinase [3]): no effect | tyrosinase mRNA expression (Tyrosinase mRNA): decrease | total melanin: eumelanin (EM) and pheomelanin (PM) content of the tissue [4]: statistically significant increase | total amount of tyrosinase protein per cell (tyrosinase [5]): statistically significant increase | degradation of tyrosinase (tyrosinase [6]; 10 μM with 1 μg/ml cycloheximide): suppresses the degradation of tyrosinase

O=c1cc(CO)occ1O [Kojic acid, Kojic Acid]
melanin synthesis (NHEM (Asian); 2-BP-treated cells): mildly inhibited melanin synthesis | melanin synthesis (NHEM (Asian); cells not treated with 2-BP): mildly inhibited melanin synthesis

C[C@@H]1C[C@@H]([C@H](O)CC2CC(=O)NC(=O)C2)C(=O)[C@@H](C)C1 [cycloheximide]
tyrosinase levels (tyrosinase [6]; 1 μg/ml cycloheximide): decreased

AcGDap(Palm)GGR7
PPT1 inhibitory activity [7]: strong PPT1 inhibitors

GGC(Pal) VKIKK [CS8]
PPT1 inhibitory activity [7]: comparable inhibitory activity to CS38

NBD-αAGDap(Pal)VKIKK [CS38]
inhibitor potency relative to Dap1 ([7]; PPT1 inhibition, compared with Dap1): 3 fold | IC50 ([7]; PPT1 inhibition): 2000 nM
